The text below walks through data of ChEMBL document CHEMBL4699511, “Cedrol, a Sesquiterpene Alcohol, Enhances the Anticancer Efficacy of Temozolomide in Attenuating Drug Resistance via Regulation of the DNA Damage Response and MGMT Expression” (J Nat Prod, 2020).

In series [1] the test system is DBTRG-05MG. Kind of series: Induction of cell cycle arrest in human DBTRG-05MG cells assessed as p21 expression at 206 uM after 48 hrs by Western blot analysis (reference value: 1). It counts as functional. In general terms: In western blotting, separated proteins are transferred to a membrane and probed.
For series [2], the system named is DBTRG-05MG. Kind of series: Induction of cell cycle arrest in human DBTRG-05MG cells assessed as CyclinB1 expression at 206 uM after 48 hrs by Western blot analysis (reference value: 1). Type of series: functional.
Series [3] relates to DBTRG-05MG. The series is described as follows: Inhibition of JNK phosphorylation at Thr183/Tyr185 residues in human DBTRG-05MG cells at 206 uM after 48 hrs by Western blot analysis (reference value: 1). Type of series: cell-based.
The subject of series [4] is RG2. Kind of series: Induction of DNA damage in rat RG2 cells assessed as Chk2 phosphorylation at Thr68 at 206 uM after 48 hrs by Western blot analysis (reference value: 1). It counts as functional.
Series [5] concerns DBTRG-05MG. Kind of series: Induction of cell cycle arrest in human DBTRG-05MG cells assessed as CyclinD1 expression at 206 uM after 48 hrs by Western blot analysis (reference value: 1). Type of series: functional.
Series [6] deals with RG2. The series is described as follows: Induction of cell cycle arrest in rat RG2 cells assessed as p21 expression at 206 uM after 48 hrs by Western blot analysis (reference value: 1). It counts as functional.
Series [7] can be described thus: Synergistic cytotoxicity against rat CTX TNA2 cells assessed as combination index at 89.9 uM after 48 hrs in presence of 206 uM TMZ by MTT assay. Type of series: cell-based. As to conditions: ctx tna2, 48 h.
In series [8] the test system is RG2. Kind of series: Synergistic cytotoxicity against rat RG2 cells assessed as synergistic effect index at 89.9 uM after 48 hrs in presence of 412.1 uM TMZ by MTT assay. It counts as functional.
Series [9] concerns RG2. Kind of series: Induction of apoptosis in rat RG2 cells assessed as cleaved caspace-3 expression at 112.4 uM after 48 hrs by Western blot analysis (reference value: 1). Type of series: functional.
Series [10] deals with DBTRG-05MG. The series is described as follows: Potentiation of TMZ-induced antitumor activity against human DBTRG-05MG cells xenografted in BALB/c nude mouse assessed as increase in survival time at 75 mg/kg, sc co-treated with TMZ for 18 days. Type of series: functional, organism-based. The conditions noted are these: time 18.0 day.
The subject of series [11] is RG2. The series is described as follows: Synergistic cytotoxicity against rat RG2 cells assessed as combination index at 112.4 uM after 48 hrs in presence of 103 uM TMZ by MTT assay. It counts as functional. In general terms: Tetrazolium assays rely on reduction of a dye to a coloured formazan, in cell work by metabolically active cells.
The subject of series [12] is DBTRG-05MG. Kind of series: Induction of cell cycle arrest in human DBTRG-05MG cells assessed as accumulation at G2/M phase at 112.4 uM after 24 hrs in presence of TMZ by propidium iodide staining based flow cytometric analysis (reference value: 30.08 +/- 0.1%). Type of series: functional. In general terms: Flow cytometry measures light scatter and fluorescence of single cells or particles in a stream.

Series [13] concerns DBTRG-05MG. The series is described as follows: Potentiation of TMZ-induced antitumor activity against human DBTRG-05MG cells xenografted in BALB/c nude mouse assessed as increase in apoptotic cells at 75 mg/kg, sc co-treated with TMZ for 18 days by TUNEL assay. Type of series: functional, organism-based. The conditions noted are these: time 18.0 day.
Series [14] concerns RG2. The series is described as follows: Induction of apoptosis in rat RG2 cells assessed as phosphorylated caspace-9 expression at 112.4 uM after 48 hrs in presence of TMZ by Western blot analysis (reference value: 1). It counts as functional.
Series [15] concerns DBTRG-05MG. The series is described as follows: Induction of cell cycle arrest in human DBTRG-05MG cells assessed as CyclinD1 expression at 112.4 uM after 48 hrs in presence of TMZ by Western blot analysis (reference value: 1). It counts as functional.
In series [16] the test system is DBTRG-05MG. Kind of series: Induction of apoptosis in human DBTRG-05MG cells assessed as phosphorylated caspace-3 expression at 112.4 uM after 48 hrs in presence of TMZ by Western blot analysis (reference value: 1). It counts as functional.
The subject of series [17] is DBTRG-05MG. The series is described as follows: Induction of cell cycle arrest in human DBTRG-05MG cells assessed as accumulation at G2/M phase at 112.4 uM after 12 hrs in presence of TMZ by propidium iodide staining based flow cytometric analysis (reference value: 30.08 +/- 0.1%). Type of series: functional.
Series [18] is described as follows: Toxicity in BALB/c mouse xenografted with DBTRG-05MG cells assessed as inflammatory cell infiltration score in liver at 5 mg/kg, ip for 5 days by H and E staining-based bright field microscopic analysis. The conditions noted are these: in vivo, 120 h, time 5 day. Type of series: organism-based.
Series [19] has as its system RG2. The series is described as follows: Induction of DNA damage in rat RG2 cells at 112.4 uM after 48 hrs in presence of TMZ by p.H2A.X staining based fluorescent immunocytochemistry method. Type of series: functional, cell-based.
Series [20] concerns DBTRG-05MG. Kind of series: Synergistic cytotoxicity against human DBTRG-05MG cells assessed as synergistic effect index at 134.9 uM after 48 hrs in presence of 309 uM TMZ by MTT assay. It counts as functional.
Series [21] in a line: Synergistic cytotoxicity against rat CTX TNA2 cells assessed as combination index at 134.9 uM after 48 hrs in presence of 309 uM TMZ by MTT assay. It counts as cell-based. The conditions noted are these: ctx tna2, 48 h.
In series [22] the test system is DBTRG-05MG. The series is described as follows: Synergistic cytotoxicity against human DBTRG-05MG cells assessed as synergistic effect index at 89.9 uM after 48 hrs in presence of 206 uM TMZ by MTT assay. It counts as functional.
Series [23] relates to DBTRG-05MG. Kind of series: Synergistic cytotoxicity against human DBTRG-05MG cells assessed as synergistic effect index at 112.4 uM after 48 hrs in presence of 412.1 uM TMZ by MTT assay. Type of series: functional.
Series [24] relates to DBTRG-05MG. The series is described as follows: Synergistic cytotoxicity against human DBTRG-05MG cells assessed as combination index at 134.9 uM after 48 hrs in presence of 412.1 uM TMZ by MTT assay. Type of series: functional.
The test system of series [25] is RG2. Kind of series: Induction of DNA damage in rat RG2 cells assessed as Chk2 phosphorylation at Thr68 at 112.4 uM after 48 hrs in presence of TMZ by Western blot analysis (reference value: 1). It counts as functional.
For series [26], the system named is DBTRG-05MG. The series is described as follows: Induction of cell cycle arrest in human DBTRG-05MG cells assessed as accumulation at G2/M phase at 112.4 uM after 6 hrs in presence of TMZ by propidium iodide staining based flow cytometric analysis (reference value: 30.08 +/- 0.1%). Type of series: functional.
For series [27], the system named is DBTRG-05MG. The series is described as follows: Induction of cell cycle arrest in human DBTRG-05MG cells assessed as CDK2 expression at 112.4uM after 48 hrs in presence of TMZ by Western blot analysis (reference value: 1). Type of series: functional.
Series [28] concerns DBTRG-05MG. Kind of series: Induction of DNA damage in human DBTRG-05MG cells assessed as Chk2 phosphorylation at Thr68 residues at 112.4 uM after 48 hrs by Western blot analysis (reference value: 1). It counts as functional.
For series [29], the system named is RG2. Kind of series: Synergistic cytotoxicity against rat RG2 cells assessed as synergistic effect index at 134.9 uM after 48 hrs in presence of 515.1 uM TMZ by MTT assay. It counts as functional.
The subject of series [30] is RG2. The series is described as follows: Induction of cell cycle arrest in rat RG2 cells assessed as CyclinA expression at 112.4 uM after 48 hrs by Western blot analysis (reference value: 1). Type of series: functional.
For series [31], the system named is DBTRG-05MG. Kind of series: Synergistic cytotoxicity against human DBTRG-05MG cells assessed as synergistic effect index at 89.9 uM after 48 hrs in presence of 412.1 uM TMZ by MTT assay. Type of series: functional.
Series [32] relates to RG2. Kind of series: Induction of DNA damage in rat RG2 cells assessed as ATR phosphorylation at ser428 residues at 112.4 uM after 48 hrs by Western blot analysis (reference value: 1). Type of series: functional.
Series [33] has as its system DBTRG-05MG. Kind of series: Induction of apoptosis in human DBTRG-05MG cells assessed as Bcl2 expression at 112.4 uM after 48 hrs in presence of TMZ by Western blot analysis (reference value: 1). It counts as functional.

Calls of active or inactive are those of the source. The rule behind the calls is not given here.

For the molecule `Cn1nnc2c(C(N)=O)ncn2c1=O` [TEMOZOLOMIDE], the “fold change (FC)” value in series [1] amounted to 2.1; in series [2], 1.4; in series [3], 1.2; in [4] it was 1.3; in [5] it was 0.5; in series [6], 2.3.
For `C[C@@H]1CC[C@H]2C(C)(C)[C@H]3C[C@@]12CC[C@@]3(C)O` [CEDROL], the CI stood at 1.13 in series [7], 0.8 in series [11], 1.13 in series [21] and 0.6 in series [24]. Further, the Activity_index was determined as 0.66 in series [8]; 0.89 in series [20]; 0.72 in [22]; 0.86 in [23]; 0.89 in series [29]; 0.76 in series [31]. In addition, the “fold change (FC)” value in series [9] turned out to be 1.6; in [14], 0.4; in [15] it was 0.4; in [16], 1.2; in series [25], 1.6; in [27], 0.7. For the same molecule, the “fold change (FC)” value in series [28] was 1.9; in series [30], 0.4; in series [32] it was 0.9; in series [33], 0.9. The result in series [10], in series [13] and in series [19] was Active. For the same molecule, the Activity in series [12] worked out at 36.89%; in series [17], 33.68%; in series [18], 2.38; in [26] it was 32.51%.
